{
  "source": "patent US12502435B2",
  "about": "“Metastatic brain tumor targeting peptides” (H. Lee Moffitt Cancer Center and Research Institute, Inc., priority 2018, dated 2025)",
  "key": {"[1]": {"test_system": "non-malignant brain cells", "experiment": "peptide binding to non-malignant brain cells (FIGS. 3, 5, 7A)"}, "[2]": {"test_system": "Lung Cancer Brain Metastases Cells (MH1002, MH1016, H1915)", "experiment": "flow cytometry binding of peptide to lung cancer brain metastases cells", "details": "compared to primary lung cancer cells and non-targeting peptides", "source_text": "FIGS. 2A to 2C show binding of BRDT (LBM1) peptide applied to Primary Lung Cancer Cells, Non Malignant Brain Cells, Lung Cancer Brain Metastases Cells (MH1002, MH1016, H1915) analyzed through flow cytometry.\nFIGS. 4A to 4C show binding of LBM2 peptide applied to Primary Lung Cancer Cells, Non Malignant Brain Cells, Lung Cancer Brain Metastases Cells (MH1002, MH1016, H1915) analyzed through flow cytometry.\nFIGS. 6A to 6C show binding AMOT (LBM4) peptide applied to Primary Lung Cancer Cells, Non Malignant Brain Cells, Lung Cancer Brain Metastases Cells (MH1002, MH1016, H1915) analyzed through flow cytometry.\nFor each peptide, as the concentration of peptide goes up, there was a right shift indicating binding to the brain met cells, with minimal binding to the lung cancer primary cells, showing specificity of binding to the brain mets over the lung cancer."}, "[3]": {"test_system": "Primary Lung Cancer Cells", "experiment": "peptide binding to primary lung cancer cells (FIGS. 3, 5, 7A)"}, "[4]": {"test_system": "Lung Cancer Brain Metastases cells", "experiment": "peptide binding to lung cancer brain metastases cells (FIGS. 3, 5, 7B)", "details": "MH1002"}},
  "data": [
    {"sequence": "SYPSNALSLHKY [LBM1]", "values": [
      {"measurement": "binding to non-malignant brain cells", "setting": "[1]", "result": "no binding"},
      {"measurement": "flow cytometry shift with peptide applied to lung cancer BM cells", "setting": "[2]", "result": "right shift"},
      {"measurement": "binding to primary lung cancer cells", "setting": "[3]", "result": "no binding"},
      {"measurement": "binding to Lung Cancer Brain Metastases cells", "setting": "[4]", "result": "positive binding"}
    ]},
    {"sequence": "TLGLRPVPVATT [LBM2]", "values": [
      {"measurement": "binding to non-malignant brain cells", "setting": "[1]", "result": "no binding"},
      {"measurement": "flow cytometry shift with peptide applied to lung cancer BM cells", "setting": "[2]", "result": "right shift"},
      {"measurement": "binding to primary lung cancer cells", "setting": "[3]", "result": "no binding"},
      {"measurement": "binding to Lung Cancer Brain Metastases cells", "setting": "[4]", "result": "positive binding"}
    ]}
  ]
}
